According to ChEMBL document CHEMBL1671859, “bla(IMP-4) in different genetic contexts in Enterobacteriaceae isolates from Australia” (2008):

How the values were obtained:
Type in all cases: functional
Citrobacter youngae = assay: Antibacterial activity against Citrobacter youngae isolate CyB38 harboring blaIMP-4-qacG2-aacA4-catB3 array by Etest method
Klebsiella pneumoniae [1] = assay: Antibacterial activity against Klebsiella pneumoniae isolate Kp1239 harboring IncL/M plasmid and blaIMP-4-qacG2-aacA4-catB3 array by Etest method
Klebsiella pneumoniae [2] = assay: Antibacterial activity against Klebsiella pneumoniae isolate Kp1945 harboring IncL/M plasmid and blaIMP-4-qacG2-aacA4-catB3 and dfrA12-orfF-aadA2 arrays by Etest method
Klebsiella pneumoniae [3] = assay: Antibacterial activity against Klebsiella pneumoniae isolate Kp2730 harboring IncL/M plasmid and blaIMP-4-qacG2-aacA4-catB3 and dfrA12-orfF-aadA2 arrays by Etest method
Citrobacter amalonaticus [4] = assay: Antibacterial activity against Citrobacter amalonaticus isolate Ca3927 harboring IncL/M plasmid and blaIMP-4-qacG2-aacA4-catB3 array by Etest method
Serratia marcescens [5] = assay: Antibacterial activity against Serratia marcescens isolate Sm2723 harboring IncL/M plasmid and blaIMP-4-qacG2-aacA4-catB3 array by Etest method
Klebsiella pneumoniae [6] = assay: Antibacterial activity against Klebsiella pneumoniae isolate Kp7564 harboring IncL/M plasmid and blaIMP-4-qacG2-aacA4-catB3 array by Etest method
Citrobacter amalonaticus [7] = assay: Antibacterial activity against Citrobacter amalonaticus isolate Ca38009 harboring IncL/M plasmid and blaIMP-4-qacG2-aacA4-catB3 array by Etest method
Klebsiella pneumoniae [8] = assay: Antibacterial activity against Klebsiella pneumoniae isolate Kp38009 harboring IncL/M plasmid and blaIMP-4-qacG2-aacA4-catB3 array by Etest method
Morganella morganii [9] = assay: Antibacterial activity against Morganella morganii isolate Mm38009 harboring IncL/M plasmid and blaIMP-4-qacG2-aacA4-catB3 array by Etest method
Klebsiella pneumoniae [10] = assay: Antibacterial activity against Klebsiella pneumoniae isolate Kp38045 harboring IncL/M plasmid and blaIMP-4-qacG2-aacA4-catB3 array by Etest method
Escherichia coli [11] = assay: Antibacterial activity against Escherichia coli isolate Ec9381 harboring IncL/M plasmid and blaIMP-4-qacG2-aacA4-catB3 array by Etest method
Morganella morganii [12] = assay: Antibacterial activity against Morganella morganii isolate Mm1229 harboring IncL/M plasmid and blaIMP-4-qacG2-aacA4-catB3 array by Etest method
Klebsiella pneumoniae [13] = assay: Antibacterial activity against Klebsiella pneumoniae isolate Kp3799 harboring IncL/M plasmid and blaIMP-4-qacG2-aacA4-catB3 array by Etest method
Klebsiella oxytoca [14] = assay: Antibacterial activity against Klebsiella oxytoca isolate Ko0426 harboring IncL/M plasmid and blaIMP-4-qacG2-aacA4-catB3 array by Etest method
Klebsiella oxytoca [15] = assay: Antibacterial activity against Klebsiella oxytoca isolate Ko1156 harboring IncL/M plasmid and blaIMP-4-qacG2-aacA4-catB3 array by Etest method
Citrobacter amalonaticus [16] = assay: Antibacterial activity against Citrobacter amalonaticus isolate Ca1614 harboring IncL/M plasmid and blaIMP-4-qacG2-aacA4-catB3 array by Etest method
Citrobacter freundii = assay: Antibacterial activity against Citrobacter freundii isolate Cf1614 harboring IncL/M plasmid and blaIMP-4-qacG2-aacA4-catB3 array by Etest method
Morganella morganii [17] = assay: Antibacterial activity against Morganella morganii isolate Mm1614 harboring IncL/M plasmid and blaIMP-4-qacG2-aacA4-catB3 array by Etest method
Klebsiella pneumoniae [18] = assay: Antibacterial activity against Klebsiella pneumoniae isolate Kp4614
Escherichia coli [19] = assay: Antibacterial activity against Escherichia coli isolate Ec158 harboring IncA/C plasmid and blaIMP-4-qacG2-aacA4-catB3 array by Etest method
Klebsiella pneumoniae [20] = assay: Antibacterial activity against Klebsiella pneumoniae isolate Kp149 harboring IncA/C plasmid and blaIMP-4-qacG2-aacA4-catB3 array by Etest method
Serratia marcescens [21] = assay: Antibacterial activity against Serratia marcescens isolate Sm220 harboring IncA/C plasmid and blaIMP-4-qacG2-aacA4-catB3 array by Etest method
Serratia marcescens [22] = assay: Antibacterial activity against Serratia marcescens isolate Sm201 harboring IncA/C plasmid and blaIMP-4-qacG2-aacA4-catB3 array by Etest method
Serratia marcescens [23] = assay: Antibacterial activity against Serratia marcescens isolate Sm203 harboring IncA/C plasmid and blaIMP-4-qacG2-aacA4-catB3 array by Etest method
Klebsiella pneumoniae [24] = assay: Antibacterial activity against Klebsiella pneumoniae isolate Kp211 harboring IncA/C plasmid and blaIMP-4-qacG2-aacA4-catB3 array by Etest method
Escherichia coli [25] = assay: Antibacterial activity against Escherichia coli isolate Ec211 harboring IncA/C plasmid and blaIMP-4-qacG2-aacA4-catB3 array by Etest method
Klebsiella pneumoniae [26] = assay: Antibacterial activity against Klebsiella pneumoniae isolate Kp266 harboring IncA/C plasmid and blaIMP-4-qacG2-aacA4-catB3 array by Etest method
Serratia marcescens [27] = assay: Antibacterial activity against Serratia marcescens isolate Sm211 harboring IncA/C plasmid and blaIMP-4-qacG2-aacA4-catB3 array by Etest method
Citrobacter koseri = assay: Antibacterial activity against Citrobacter koseri isolate Ck211 harboring IncA/C plasmid and blaIMP-4-qacG2-aacA4-catB3 array by Etest method
Escherichia coli [28] = assay: Antibacterial activity against Escherichia coli isolate Ec221 harboring IncA/C plasmid and blaIMP-4-qacG2-aacA4-catB3 array by Etest method
Klebsiella oxytoca [29] = assay: Antibacterial activity against Klebsiella oxytoca isolate Ko238 harboring IncA/C plasmid and blaIMP-4-qacG2-aacA4-catB3 array by Etest method
Klebsiella pneumoniae [30] = assay: Antibacterial activity against Klebsiella pneumoniae isolate Kp204 harboring IncA/C plasmid and blaIMP-4-qacG2-aacA4-catB3 array by Etest method
Serratia marcescens [31] = assay: Antibacterial activity against Serratia marcescens isolate Sm265 harboring IncA/C plasmid and blaIMP-4-qacG2-aacA4-catB3 array by Etest method
Acinetobacter = assay: Antibacterial activity against Acinetobacter isolate A74510 harboring blaIMP-4-qacG2-aacA4-catB3 array by Etest method
Acinetobacter baumannii = assay: Antibacterial activity against Acinetobacter baumannii isolate AbN450 harboring […]-qacG2-aacA4-catB3 array by Etest method

Measured: MIC

C[C@H]1[C@H](NC(=O)/C(=N\OC(C)(C)C(=O)O)c2csc(N)n2)C(=O)N1S(=O)(=O)O [AZTREONAM]
≤ 1 µg/mL: Citrobacter youngae | Klebsiella pneumoniae [1] | Klebsiella pneumoniae [2] | Klebsiella pneumoniae [3] | Serratia marcescens [5] | Klebsiella pneumoniae [6] | Citrobacter amalonaticus [7] | Klebsiella pneumoniae [8] | Morganella morganii [9] | Klebsiella pneumoniae [10] | Escherichia coli [11] | Morganella morganii [12] | Klebsiella pneumoniae [13] | Klebsiella oxytoca [14] | Klebsiella oxytoca [15] | Klebsiella pneumoniae [18] | Escherichia coli [19] | Serratia marcescens [21] | Serratia marcescens [22] | Serratia marcescens [23] | Klebsiella pneumoniae [24] | Escherichia coli [25] | Klebsiella pneumoniae [26] | Serratia marcescens [27] | Citrobacter koseri | Escherichia coli [28] | Klebsiella oxytoca [29] | Klebsiella pneumoniae [30] | Serratia marcescens [31]
> 16 µg/mL: Citrobacter amalonaticus [4] | Citrobacter amalonaticus [16] | Citrobacter freundii | Klebsiella pneumoniae [20] | Acinetobacter | Acinetobacter baumannii
4 µg/mL: Morganella morganii [17]

O=C(O)c1cn(C2CC2)c2cc(N3CCNCC3)c(F)cc2c1=O [CIPROFLOXACIN]
2 µg/mL: Serratia marcescens [21] | Serratia marcescens [23] | Serratia marcescens [27]
> 2 µg/mL: Citrobacter youngae | Serratia marcescens [5] | Serratia marcescens [22] | Acinetobacter | Acinetobacter baumannii
≤ 0.5 µg/mL: Citrobacter amalonaticus [4] | Citrobacter amalonaticus [7] | Morganella morganii [9] | Escherichia coli [11] | Morganella morganii [12] | Klebsiella oxytoca [14] | Klebsiella oxytoca [15] | Citrobacter amalonaticus [16] | Citrobacter freundii | Morganella morganii [17] | Escherichia coli [19] | Escherichia coli [25] | Citrobacter koseri | Escherichia coli [28] | Klebsiella oxytoca [29] | Serratia marcescens [31]
